According to patent publication US8921307B2, “Synthetic linear apelin mimetics for the treatment of heart failure” (priority 2012, dated 2014):
Where two headings read alike, the source gives them in different places. Where a SMILES comes first, the peptide text is derived from it. [ ]: non-standard residue; d: D form. The star is where a group is joined. Cha = N[C@@H](CC1CCCCC1)C(=O)O; pGlu = O=C1CC[C@@H](C(=O)O)N1; dNle = CCCC[C@@H](N)C(=O)O; dNva = CCC[C@@H](N)C(=O)O; Bn = c1ccc(C*)cc1

What was measured:
hAPJ = biological target: T1, hAPJ (Homo sapiens, UniProt P35414); test: hAPJ Calcium Flux Assay; type: cell-based
T1 sequence (P35414 1-380): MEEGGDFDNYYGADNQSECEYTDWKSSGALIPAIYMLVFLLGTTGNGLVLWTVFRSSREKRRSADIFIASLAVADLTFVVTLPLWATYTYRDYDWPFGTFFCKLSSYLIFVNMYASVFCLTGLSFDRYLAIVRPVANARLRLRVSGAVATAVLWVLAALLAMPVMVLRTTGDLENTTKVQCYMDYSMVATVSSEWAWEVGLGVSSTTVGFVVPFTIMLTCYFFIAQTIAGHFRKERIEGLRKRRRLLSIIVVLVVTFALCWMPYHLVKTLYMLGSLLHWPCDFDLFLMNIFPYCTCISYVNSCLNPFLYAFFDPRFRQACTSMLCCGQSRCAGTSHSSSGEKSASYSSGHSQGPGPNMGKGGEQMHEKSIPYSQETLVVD
Outline: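 Chem-5 cells stably expressing APJ, loaded 1 h with Calcium 4 dye plus 2.5 mM probenecid at 37 °C. Peptides added at final […] in HBSS/HEPES/0.1% BSA, in triplicate.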

[1] = Surrogate Activity-Based Plasma Stability Assay; type: in vitro ADME; conditions: rat
Description: Stability half-life was then calculated by the formula, t½=0.693÷k Surrogate Activity-Based Plasma Stability Assay: […]
2) Calculate slope of value above and […]

[2] = Plasma Stability Assay (LC-MS); type: in vitro ADME; conditions: male, Sprague-Dawley, rat
Description: Plasma Stability Assay: Materials: Working solution: 1 mg/mL test article is prepared in Milli-Q water Extraction solution: Methanol:Acetonitrile:Water (1:1:1) with 0.1% Formic Acid and 400 ng/mL Glyburide. Plasma: Male Sprague-Dawley rat plasma (with sodium heparin), purchased from Bioreclamation LLC (Liverpool, N.Y.). Test article was prepared in one of the following biological matrices: heparinized rat plasma, heparinized rat whole blood or lung homogenate. […] Lung homogenate samples were prepared by diluting lung homogenate to 1 mg/ml protein concentration with phosphate buffered saline (PBS), followed by addition of 5 uL Working solution to 995 uL diluted lung homogenate. The samples were incubated at 37° C. with gentle shaking (65˜75 rpm) in a water bath incubator. […] Afterwards, a pipetting device (Tecan Temo) was used to tranfer the supernatants to another plate and add 50 uL of water to all samples. The plate was vortexed prior to LC-MS analysis. LC-MS Analysis of stability samples HPLC: Agilent 1290 HPLC with autosampler Column: MAC-MOD ACE C18, 3 μm, 30 mm×2.1 mm i.d. Mobile phase A: 0.1% Formic acid in acetonitrile Mobile phase B: 0.1% Formic acid in water Gradient Program: [table]

[3] = Chem-5 APJ stable cells, FLIPR calcium flux stimulation, read-out: hAPJ Ca^2+ Flux EC50
[4] = Surrogate Activity based Plasma stability t½
[5] = Surrogate activity-based Plasma stability t½

Work on `CCCC[C@H](NC(=O)[C@@H]1CCCN1C(=O)CNC(=O)[C@H](CCCCN)NC(=O)[C@H](Cc1c[nH]cn1)NC(=O)[C@@H](C)NC(=O)[C@H](CC(C)C)NC(=O)[C@H](CCCNC(=N)N)NC(=O)[C@@H]1CCCN1C(=O)[C@H](CCCNC(=N)N)NC(=O)[C@@H]1CCC(=O)N1)C(=O)N[C@H](C)C(=O)N[C@H](Cc1ccccc1)C(=O)O` [Example 30, pE-R-P-R-L-a-H-K-G-P-Nle-a-f-OH] yielded an EC50 (hAPJ; [3]) of 2.4 nM, a half-life [1, 4] of 2.13 h and a half-life [1, 5] of 2.14 h. The half-life at 5000 ng/mL [2] was 2.02 h.

With `CCCC[C@@H](NC(=O)[C@@H]1CCCN1C(=O)CNC(=O)[C@H](CCCCN)NC(=O)[C@H](Cc1c[nH]cn1)NC(=O)[C@@H](C)NC(=O)[C@H](CC(C)C)NC(=O)[C@H](CCCNC(=N)N)NC(=O)[C@@H]1CCCN1C(=O)[C@H](CCCNC(=N)N)NC(=O)[C@@H]1CCC(=O)N1)C(=O)N[C@H](C)C(=O)N[C@H](Cc1ccccc1)C(=O)O` [Example 29, pE-R-P-R-L-a-H-K-G-P-nle-a-f-OH] the half-life [1, 4] was 9.42 h, the half-life [1, 5] was 9.42 h and the half-life at 5000 ng/mL [2] was 2.6 h.

For `CCCC[C@@H](NC(=O)[C@@H]1CCCN1C(=O)CNC(=O)[C@H](CCCCN)NC(=O)[C@H](Cc1ccccc1)NC(=O)[C@@H](C)NC(=O)[C@H](CC(C)C)NC(=O)[C@H](CCCNC(=N)N)NC(=O)[C@@H]1CCCN1C(=O)[C@H](CCCNC(=N)N)NC(=O)[C@@H]1CCC(=O)N1)C(=O)N[C@H](C)C(=O)N[C@H](Cc1ccccc1)C(=O)O` [Example 17, pE-R-P-R-L-a-F-K-G-P-nle-a-f-OH] ([pGlu]RPRL[dA]FKGP[dNle][dA][dF]-OH), the EC50 (hAPJ; [3]) was 3.1 nM, the half-life [1, 4] was > 16.7 h and the half-life [1, 5] was > 16.7 h. The half-life at 5000 ng/mL [2] was 6.08 h.

For `CCCC[C@@H](NC(=O)[C@@H]1CCCN1C(=O)CNC(=O)[C@H](CCCCN)NC(=O)[C@H](Cc1c[nH]cn1)NC(=O)[C@@H](C)NC(=O)[C@H](CC(C)C)NC(=O)[C@H](CCCNC(=N)N)NC(=O)[C@@H]1CCCN1C(=O)[C@H](CCCNC(=N)N)NC(=O)[C@@H]1CCC(=O)N1)C(=O)N[C@H](CC(C)C)C(=O)N[C@H](Cc1ccccc1)C(=O)O` [Example 14, pE-R-P-R-L-a-H-K-G-P-nle-(D-Leu)-f-OH] ([pGlu]RPRL[dA]HKGP[dNle][dL][dF]-OH), the EC50 (hAPJ; [3]) was 3.2 nM, the half-life [1, 4] was 3.08 h and the half-life [1, 5] was 3.08 h. For the same compound, the half-life at 5000 ng/mL [2] was 6.75 h.

For `CCCC[C@@H](NC(=O)[C@@H]1CCCN1C(=O)CNC(=O)[C@H](CCCCN)NC(=O)[C@@H](C)NC(=O)[C@H](CO)NC(=O)[C@H](CC(C)C)NC(=O)[C@H](CCCNC(=N)N)NC(=O)[C@@H]1CCCN1C(=O)[C@H](CCCNC(=N)N)NC(=O)[C@@H]1CCC(=O)N1)C(=O)N[C@H](C)C(=O)N[C@H](Cc1ccccc1)C(=O)O` [Example 51, pE-R-P-R-L-S-a-K-G-P-nle-a-f-OH] ([pGlu]RPRLS[dA]KGP[dNle][dA][dF]-OH), the EC50 (hAPJ; [3]) was 8.5 nM and the half-life [1, 5] was > 16.7 h.

With `CCCC[C@@H](NC(=O)[C@@H]1CCCN1C(=O)CNC(=O)[C@H](CCCCN)NC(=O)[C@H](Cc1c[nH]cn1)NC(=O)[C@H](NC(=O)[C@H](CC(C)C)NC(=O)[C@H](CCCNC(=N)N)NC(=O)[C@@H]1CCCN1C(=O)[C@H](CCCNC(=N)N)NC(=O)[C@@H]1CCC(=O)N1)C(C)C)C(=O)N[C@H](C)C(=O)N[C@H](Cc1ccccc1)C(=O)O` [Example 61, pE-R-P-R-L-v-H-K-G-P-nle-a-f-OH] ([pGlu]RPRL[dV]HKGP[dNle][dA][dF]-OH) the EC50 (hAPJ; [3]) was 7.9 nM and the half-life [1, 5] was > 16.7 h.

In the case of `CCCC[C@@H](NC(=O)[C@@H]1CCCN1C(=O)CNC(=O)[C@H](CCCCN)NC(=O)[C@H](Cc1c[nH]cn1)NC(=O)[C@@H](CO)NC(=O)[C@H](CC(C)C)NC(=O)[C@H](CCCNC(=N)N)NC(=O)[C@@H]1CCCN1C(=O)[C@H](CCCNC(=N)N)NC(=O)[C@@H]1CCC(=O)N1)C(=O)N[C@H](C)C(=O)N[C@H](Cc1ccccc1)C(=O)O` [Example 12, pE-R-P-R-L-s-H-K-G-P-nle-a-f-OH] ([pGlu]RPRL[dS]HKGP[dNle][dA][dF]-OH), the EC50 (hAPJ; [3]) is reported as 0.9 nM and the half-life [1, 5] is reported as > 16.7 h.

`CCCC[C@@H](NC(=O)[C@@H]1CCCN1C(=O)CNC(=O)[C@H](CCCCN)NC(=O)[C@H](Cc1c[nH]cn1)NC(=O)[C@@H](CCC)NC(=O)[C@H](CC1CCCCC1)NC(=O)[C@H](CCCNC(=N)N)NC(=O)[C@@H]1CCCN1C(=O)[C@H](CCCNC(=N)N)NC(=O)[C@@H]1CCC(=O)N1)C(=O)N[C@H](C)C(=O)N[C@H](Cc1ccccc1)C(=O)O` [Example 63, pE-R-P-R-Cha-nva-H-K-G-P-nle-a-f-OH] ([pGlu]RPR[Cha][dNva]HKGP[dNle][dA][dF]-OH) gave an EC50 (hAPJ; [3]) of 9.4 nM and a half-life [1, 5] of 3.75 h.

In the case of `CCC[C@@H](NC(=O)[C@@H]1CCCN1C(=O)CNC(=O)[C@H](CCCCN)NC(=O)[C@H](Cc1c[nH]cn1)NC(=O)[C@@H](C)NC(=O)[C@H](CC(C)C)NC(=O)[C@H](CCCNC(=N)N)NC(=O)[C@@H]1CCCN1C(=O)[C@H](CCCNC(=N)N)NC(=O)[C@@H]1CCC(=O)N1)C(=O)N[C@H](C)C(=O)N[C@H](Cc1ccccc1)C(=O)O` [Example 53, pE-R-P-R-L-a-H-K-G-P-nva-a-f-OH] ([pGlu]RPRL[dA]HKGP[dNva][dA][dF]-OH), the EC50 (hAPJ; [3]) is reported as 8.7 nM and the half-life [1, 5] is reported as > 16.7 h.

For `CCCC[C@@H](NC(=O)[C@@H]1CCCN1C(=O)CNC(=O)[C@H](CCCCN)NC(=O)[C@H](Cc1c[nH]cn1)NC(=O)[C@@H](C)NC(=O)[C@H](CC(C)C)NC(=O)[C@H](CCCNC(=N)N)NC(=O)[C@@H]1CCCN1C(=O)[C@@H](CCCNC(=N)N)NC(=O)[C@@H]1CCC(=O)N1)C(=O)N[C@H](C)C(=O)N[C@H](Cc1ccccc1)C(=O)O` [Example 3, pE-r-P-R-L-a-H-K-G-P-nle-a-f-OH], the EC50 (hAPJ; [3]) was 797 nM and the half-life [1, 5] was > 16.7 h.

`CCCC[C@@H](NC(=O)[C@@H]1CCCN1C(=O)CNC(=O)[C@H](CCCCN)NC(=O)[C@@H](Cc1ccccc1)NC(=O)[C@@H](C)NC(=O)[C@H](CC(C)C)NC(=O)[C@H](CCCNC(=N)N)NC(=O)[C@@H]1CCCN1C(=O)[C@H](CCCNC(=N)N)NC(=O)[C@@H]1CCC(=O)N1)C(=O)N[C@H](C)C(=O)N[C@H](Cc1ccccc1)C(=O)O` [Example 46, pE-R-P-R-L-a-f-K-G-P-nle-a-f-OH] ([pGlu]RPRL[dA][dF]KGP[dNle][dA][dF]-OH) showed an EC50 (hAPJ; [3]) of 9.2 nM and a half-life [1, 5] of 8.87 h.

In the case of `CCCC[C@@H](NC(=O)[C@@H]1CCCN1C(=O)CNC(=O)[C@H](CCC(N)=O)NC(=O)[C@H](Cc1c[nH]cn1)NC(=O)[C@@H](C)NC(=O)[C@H](CC(C)C)NC(=O)[C@H](CCCNC(=N)N)NC(=O)[C@@H]1CCCN1C(=O)[C@H](CCCNC(=N)N)NC(=O)[C@@H]1CCC(=O)N1)C(=O)N[C@H](C)C(=O)N[C@H](Cc1ccccc1)C(=O)O` [Example 59, pE-R-P-R-L-a-H-Q-G-P-nle-a-f-OH] ([pGlu]RPRL[dA]HQGP[dNle][dA][dF]-OH), the EC50 (hAPJ; [3]) is reported as 7.4 nM and the half-life [1, 5] is reported as 14.2 h.

With `CCCC[C@@H](NC(=O)[C@@H]1CCCN1C(=O)CNC(=O)[C@H](CCCCN)NC(=O)[C@H](Cc1c[nH]cn1)NC(=O)[C@@H](C)NC(=O)[C@H](Cc1ccc(OCc2ccccc2)cc1)NC(=O)[C@H](CCCNC(=N)N)NC(=O)[C@@H]1CCCN1C(=O)[C@H](CCCNC(=N)N)NC(=O)[C@@H]1CCC(=O)N1)C(=O)N[C@H](C)C(=O)N[C@H](Cc1ccccc1)C(=O)O` [Example 27, pE-R-P-R-Y(Bzl)-a-H-K-G-P-nle-a-f-OH] ([pGlu]RPRY(Bn)[dA]HKGP[dNle][dA][dF]-OH) the EC50 (hAPJ) was 121 nM and the half-life ([1]; read-out: Surrogate activity-based Plasma stability t½) was 5.81 h.

In the case of `CCCC[C@H](NC(=O)[C@@H]1CCCN1C(=O)CNC(=O)[C@@H](CCCCN)NC(=O)[C@H](Cc1c[nH]cn1)NC(=O)[C@@H](C)NC(=O)[C@H](CC(C)C)NC(=O)[C@H](CCCNC(=N)N)NC(=O)[C@@H]1CCCN1C(=O)[C@H](CCCNC(=N)N)NC(=O)[C@@H]1CCC(=O)N1)C(=O)N[C@H](C)C(=O)N[C@H](Cc1ccccc1)C(=O)O` [Example 31, pE-R-P-R-L-a-H-k-G-P-Nle-a-f-OH], the EC50 (hAPJ; [3]) is reported as 99 nM and the half-life [1, 5] is reported as 5.78 h.

For `CCCC[C@@H](NC(=O)[C@@H]1CCCN1C(=O)CNC(=O)[C@H](CCCCN)NC(=O)[C@H](Cc1c[nH]cn1)NC(=O)[C@@H](C)NC(=O)[C@H](CC(C)C)NC(=O)[C@H](CCCNC(=N)N)NC(=O)[C@@H]1CCCN1C(=O)[C@H](CCCNC(=N)N)NC(=O)[C@@H]1CCC(=O)N1)C(=O)N[C@H](C)C(=O)N[C@H](Cc1ccc(O)cc1)C(=O)O` [Example 21, pE-R-P-R-L-a-H-K-G-P-nle-a-y-OH] ([pGlu]RPRL[dA]HKGP[dNle][dA][dY]-OH), the EC50 (hAPJ; [3]) was 0.9 nM and the half-life [1, 5] was > 16.7 h.
